Assays:
[1] = target: PIKFYVE (Homo sapiens, UniProt Q9Y2I7); details: cited from earlier work
[2] = target: STK10/LOK (Homo sapiens, UniProt O94804); details: cited from earlier work
[3] = target: BMPR1B (Homo sapiens, UniProt O00238); details: cited from earlier work
[4] = target: T1, TGFBR1 (Homo sapiens, UniProt P36897); details: cited from earlier work
T1 sequence (P36897 34-503): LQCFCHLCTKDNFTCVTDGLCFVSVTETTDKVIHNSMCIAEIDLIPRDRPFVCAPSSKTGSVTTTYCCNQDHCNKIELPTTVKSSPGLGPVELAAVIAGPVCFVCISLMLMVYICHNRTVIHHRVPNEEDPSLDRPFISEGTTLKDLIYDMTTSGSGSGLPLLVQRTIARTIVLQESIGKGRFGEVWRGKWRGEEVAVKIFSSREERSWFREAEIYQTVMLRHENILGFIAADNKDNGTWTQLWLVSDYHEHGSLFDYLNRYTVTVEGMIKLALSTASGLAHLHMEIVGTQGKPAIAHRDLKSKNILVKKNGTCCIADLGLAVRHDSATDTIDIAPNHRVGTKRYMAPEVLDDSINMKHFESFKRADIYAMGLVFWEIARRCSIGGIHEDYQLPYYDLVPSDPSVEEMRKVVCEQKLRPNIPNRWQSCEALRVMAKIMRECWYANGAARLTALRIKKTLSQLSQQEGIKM

[5] = target: MAPK9/JNK2 (Homo sapiens, UniProt P45984); details: cited from earlier work
[6] = target: CSNK1E (Homo sapiens, UniProt P49674); details: cited from earlier work
[7] = target: T2, PRKD1 (Homo sapiens, UniProt Q15139); details: cited from earlier work
T2 sequence (Q15139 1-912): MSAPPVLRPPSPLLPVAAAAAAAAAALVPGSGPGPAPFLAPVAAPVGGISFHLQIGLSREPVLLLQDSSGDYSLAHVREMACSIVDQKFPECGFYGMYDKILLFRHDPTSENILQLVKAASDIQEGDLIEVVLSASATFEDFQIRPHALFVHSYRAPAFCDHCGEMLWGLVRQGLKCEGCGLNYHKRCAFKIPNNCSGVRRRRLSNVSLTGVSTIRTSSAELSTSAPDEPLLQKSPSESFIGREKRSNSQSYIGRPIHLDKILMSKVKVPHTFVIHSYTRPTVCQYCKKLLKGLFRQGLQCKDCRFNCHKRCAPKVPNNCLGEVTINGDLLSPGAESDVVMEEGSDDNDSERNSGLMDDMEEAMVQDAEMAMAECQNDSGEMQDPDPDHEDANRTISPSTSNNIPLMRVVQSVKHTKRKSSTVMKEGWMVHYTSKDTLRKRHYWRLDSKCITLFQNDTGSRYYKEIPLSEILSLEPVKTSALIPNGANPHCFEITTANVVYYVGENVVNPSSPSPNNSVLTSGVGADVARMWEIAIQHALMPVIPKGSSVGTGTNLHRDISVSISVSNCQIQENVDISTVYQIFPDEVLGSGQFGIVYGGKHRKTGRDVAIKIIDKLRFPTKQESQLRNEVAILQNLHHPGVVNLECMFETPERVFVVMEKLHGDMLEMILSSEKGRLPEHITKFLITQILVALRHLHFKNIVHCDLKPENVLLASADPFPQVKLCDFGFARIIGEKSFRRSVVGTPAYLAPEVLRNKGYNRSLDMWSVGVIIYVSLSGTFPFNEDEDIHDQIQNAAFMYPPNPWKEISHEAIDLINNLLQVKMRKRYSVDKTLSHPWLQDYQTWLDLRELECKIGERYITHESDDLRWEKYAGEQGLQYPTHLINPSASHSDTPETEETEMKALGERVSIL

[8] = target: T3, ACVR1B (Homo sapiens, UniProt P36896); details: cited from earlier work
T3 sequence (P36896 24-505): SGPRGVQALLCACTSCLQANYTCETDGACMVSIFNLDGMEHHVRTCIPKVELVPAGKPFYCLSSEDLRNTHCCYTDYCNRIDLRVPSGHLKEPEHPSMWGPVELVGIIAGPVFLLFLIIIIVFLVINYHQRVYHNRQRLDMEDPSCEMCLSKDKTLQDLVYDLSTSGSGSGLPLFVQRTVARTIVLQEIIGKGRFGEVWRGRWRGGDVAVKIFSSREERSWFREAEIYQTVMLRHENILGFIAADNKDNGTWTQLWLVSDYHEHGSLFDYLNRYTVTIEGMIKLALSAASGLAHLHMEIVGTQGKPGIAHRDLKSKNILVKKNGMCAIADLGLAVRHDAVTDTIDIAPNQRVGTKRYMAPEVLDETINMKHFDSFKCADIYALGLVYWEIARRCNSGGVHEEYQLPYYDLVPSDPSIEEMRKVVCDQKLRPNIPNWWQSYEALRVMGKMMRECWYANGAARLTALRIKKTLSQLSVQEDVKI

[9] = target: MAPK10/JNK3 (Homo sapiens, UniProt P53779); details: cited from earlier work
[10] = target: MINK1/MINK (Homo sapiens, UniProt Q8N4C8); details: cited from earlier work
[11] = tested on: ALK5/TGFBR1; details: cited from earlier work
[12] = tested on: endogenous TFE3; assay: TFE3 nuclear translocation, immunocytochemistry high-content imaging; format: cell-based; details: for TFE3 %: PKIS2 primary screening; for nTFE3 %: primary screen, 1 µM, 24 h
[13] = tested on: SH-SY5Y cells; details: PKIS2 primary screening; for DQ Intensity: DQ Red BSA intensity; for DQ Spot: DQ Red BSA spot count
Text: The PKIS2 Library was supplied by The Structural Genomics Consortium at the University of North Carolina at Chapel Hill.

Sequence of PIKFYVE (Q9Y2I7 whole entry): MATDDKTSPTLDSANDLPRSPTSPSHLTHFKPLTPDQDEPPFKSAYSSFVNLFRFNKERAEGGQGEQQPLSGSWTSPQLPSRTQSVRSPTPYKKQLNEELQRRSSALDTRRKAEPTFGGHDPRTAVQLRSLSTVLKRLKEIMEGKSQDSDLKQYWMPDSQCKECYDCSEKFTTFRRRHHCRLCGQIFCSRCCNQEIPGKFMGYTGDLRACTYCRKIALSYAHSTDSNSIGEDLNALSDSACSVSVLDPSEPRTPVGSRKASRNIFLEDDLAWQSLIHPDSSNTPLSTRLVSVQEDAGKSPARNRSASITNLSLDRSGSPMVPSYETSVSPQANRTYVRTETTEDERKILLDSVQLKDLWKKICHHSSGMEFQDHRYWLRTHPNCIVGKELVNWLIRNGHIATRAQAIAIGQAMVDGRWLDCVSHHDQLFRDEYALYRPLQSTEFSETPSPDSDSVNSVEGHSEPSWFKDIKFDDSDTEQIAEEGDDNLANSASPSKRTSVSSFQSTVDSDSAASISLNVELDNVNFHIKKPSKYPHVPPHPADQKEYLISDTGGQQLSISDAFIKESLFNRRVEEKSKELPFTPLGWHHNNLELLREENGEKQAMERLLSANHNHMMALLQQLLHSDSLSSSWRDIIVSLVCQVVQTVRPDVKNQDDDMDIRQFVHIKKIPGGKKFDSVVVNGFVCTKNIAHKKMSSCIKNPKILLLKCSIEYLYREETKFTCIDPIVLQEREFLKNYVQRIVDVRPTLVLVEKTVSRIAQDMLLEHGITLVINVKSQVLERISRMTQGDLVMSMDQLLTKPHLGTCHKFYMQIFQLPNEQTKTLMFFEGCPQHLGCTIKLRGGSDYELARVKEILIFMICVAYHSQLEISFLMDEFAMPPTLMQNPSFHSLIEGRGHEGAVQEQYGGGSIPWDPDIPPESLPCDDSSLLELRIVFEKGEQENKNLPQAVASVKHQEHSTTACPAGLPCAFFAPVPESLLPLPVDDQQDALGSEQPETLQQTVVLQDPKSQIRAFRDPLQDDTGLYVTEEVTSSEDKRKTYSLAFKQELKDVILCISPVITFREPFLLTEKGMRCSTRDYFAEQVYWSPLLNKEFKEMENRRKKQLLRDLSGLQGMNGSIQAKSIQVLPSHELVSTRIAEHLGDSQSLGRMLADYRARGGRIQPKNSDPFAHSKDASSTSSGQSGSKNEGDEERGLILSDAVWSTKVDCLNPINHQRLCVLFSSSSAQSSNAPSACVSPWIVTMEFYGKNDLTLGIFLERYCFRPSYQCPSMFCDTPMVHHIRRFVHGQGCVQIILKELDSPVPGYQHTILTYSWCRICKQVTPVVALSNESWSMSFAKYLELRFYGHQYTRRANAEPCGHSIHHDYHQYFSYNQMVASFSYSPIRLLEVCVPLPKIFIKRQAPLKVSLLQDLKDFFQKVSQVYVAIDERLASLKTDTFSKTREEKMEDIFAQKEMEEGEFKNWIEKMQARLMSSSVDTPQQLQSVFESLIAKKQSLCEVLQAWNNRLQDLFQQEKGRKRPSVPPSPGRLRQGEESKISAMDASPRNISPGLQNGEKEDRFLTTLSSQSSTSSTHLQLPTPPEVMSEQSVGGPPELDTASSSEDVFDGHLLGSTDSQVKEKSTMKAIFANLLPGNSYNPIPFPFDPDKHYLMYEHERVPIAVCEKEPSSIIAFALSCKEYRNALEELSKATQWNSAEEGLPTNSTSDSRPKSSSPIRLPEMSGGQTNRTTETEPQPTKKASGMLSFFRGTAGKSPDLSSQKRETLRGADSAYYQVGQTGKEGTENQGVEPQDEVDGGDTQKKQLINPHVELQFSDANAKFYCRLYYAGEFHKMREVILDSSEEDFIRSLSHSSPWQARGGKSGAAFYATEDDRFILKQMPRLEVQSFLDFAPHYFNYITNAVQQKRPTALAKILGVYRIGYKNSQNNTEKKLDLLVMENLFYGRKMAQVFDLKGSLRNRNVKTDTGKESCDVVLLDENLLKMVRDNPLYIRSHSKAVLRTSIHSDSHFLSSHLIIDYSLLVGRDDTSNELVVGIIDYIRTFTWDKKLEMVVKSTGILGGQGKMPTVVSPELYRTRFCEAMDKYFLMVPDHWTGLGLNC
Sequence of BMPR1B (O00238 14-502): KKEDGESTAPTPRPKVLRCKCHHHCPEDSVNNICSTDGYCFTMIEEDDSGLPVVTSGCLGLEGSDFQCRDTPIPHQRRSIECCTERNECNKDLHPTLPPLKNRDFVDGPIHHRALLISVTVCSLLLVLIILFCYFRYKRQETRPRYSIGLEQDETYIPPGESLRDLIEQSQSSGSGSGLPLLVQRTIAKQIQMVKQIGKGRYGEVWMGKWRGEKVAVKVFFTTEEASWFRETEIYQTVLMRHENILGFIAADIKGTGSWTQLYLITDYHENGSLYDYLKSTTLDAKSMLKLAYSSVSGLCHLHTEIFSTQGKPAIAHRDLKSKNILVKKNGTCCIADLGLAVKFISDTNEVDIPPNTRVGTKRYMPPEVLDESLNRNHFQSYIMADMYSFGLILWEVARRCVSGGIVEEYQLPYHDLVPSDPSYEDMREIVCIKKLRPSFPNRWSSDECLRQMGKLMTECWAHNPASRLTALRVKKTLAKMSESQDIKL
Sequence of CSNK1E (P49674 whole entry): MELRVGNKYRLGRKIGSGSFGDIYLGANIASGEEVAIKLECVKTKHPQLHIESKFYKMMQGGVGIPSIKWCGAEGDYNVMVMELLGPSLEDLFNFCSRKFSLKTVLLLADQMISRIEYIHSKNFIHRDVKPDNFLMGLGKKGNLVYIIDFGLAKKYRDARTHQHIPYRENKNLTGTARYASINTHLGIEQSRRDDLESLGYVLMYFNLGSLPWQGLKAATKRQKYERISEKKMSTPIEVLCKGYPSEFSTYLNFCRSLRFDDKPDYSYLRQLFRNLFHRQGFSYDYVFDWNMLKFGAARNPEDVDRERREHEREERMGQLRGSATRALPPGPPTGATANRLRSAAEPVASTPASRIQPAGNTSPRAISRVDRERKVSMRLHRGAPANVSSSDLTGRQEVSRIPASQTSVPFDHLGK
Sequence of MINK1/MINK (Q8N4C8 whole entry): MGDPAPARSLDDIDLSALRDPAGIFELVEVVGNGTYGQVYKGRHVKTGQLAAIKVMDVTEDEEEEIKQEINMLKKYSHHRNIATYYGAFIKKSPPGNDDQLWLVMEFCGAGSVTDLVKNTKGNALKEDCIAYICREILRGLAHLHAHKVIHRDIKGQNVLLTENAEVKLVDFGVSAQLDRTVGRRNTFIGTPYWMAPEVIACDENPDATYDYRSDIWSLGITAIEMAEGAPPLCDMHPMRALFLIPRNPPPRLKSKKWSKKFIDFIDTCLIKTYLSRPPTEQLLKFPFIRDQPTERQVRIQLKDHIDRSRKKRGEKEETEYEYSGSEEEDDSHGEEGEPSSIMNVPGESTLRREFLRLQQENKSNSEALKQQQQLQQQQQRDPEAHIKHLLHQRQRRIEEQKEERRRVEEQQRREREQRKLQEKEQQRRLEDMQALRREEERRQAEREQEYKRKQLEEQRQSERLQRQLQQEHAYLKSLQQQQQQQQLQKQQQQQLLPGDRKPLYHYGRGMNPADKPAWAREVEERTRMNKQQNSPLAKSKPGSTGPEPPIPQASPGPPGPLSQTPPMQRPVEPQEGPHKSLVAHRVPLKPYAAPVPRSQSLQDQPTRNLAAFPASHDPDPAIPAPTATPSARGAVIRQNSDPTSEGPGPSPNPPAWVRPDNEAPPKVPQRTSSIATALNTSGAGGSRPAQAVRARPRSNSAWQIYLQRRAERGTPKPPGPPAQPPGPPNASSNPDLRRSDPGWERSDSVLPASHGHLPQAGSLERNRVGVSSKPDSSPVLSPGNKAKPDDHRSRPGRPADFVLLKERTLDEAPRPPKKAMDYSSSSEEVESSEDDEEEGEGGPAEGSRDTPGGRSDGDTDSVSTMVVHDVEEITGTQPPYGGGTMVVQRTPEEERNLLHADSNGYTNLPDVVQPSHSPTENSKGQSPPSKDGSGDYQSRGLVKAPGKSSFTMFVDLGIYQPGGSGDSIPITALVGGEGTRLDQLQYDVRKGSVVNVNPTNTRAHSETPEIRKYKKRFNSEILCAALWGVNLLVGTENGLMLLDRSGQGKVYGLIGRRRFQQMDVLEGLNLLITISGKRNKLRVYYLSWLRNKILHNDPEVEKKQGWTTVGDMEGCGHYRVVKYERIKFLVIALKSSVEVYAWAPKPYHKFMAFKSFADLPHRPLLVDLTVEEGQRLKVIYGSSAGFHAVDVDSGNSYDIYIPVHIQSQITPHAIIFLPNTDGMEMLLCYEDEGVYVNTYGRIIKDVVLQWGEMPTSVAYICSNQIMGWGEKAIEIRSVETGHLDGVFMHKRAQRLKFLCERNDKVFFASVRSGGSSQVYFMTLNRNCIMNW
Sequence of MAPK9/JNK2 (P45984 whole entry): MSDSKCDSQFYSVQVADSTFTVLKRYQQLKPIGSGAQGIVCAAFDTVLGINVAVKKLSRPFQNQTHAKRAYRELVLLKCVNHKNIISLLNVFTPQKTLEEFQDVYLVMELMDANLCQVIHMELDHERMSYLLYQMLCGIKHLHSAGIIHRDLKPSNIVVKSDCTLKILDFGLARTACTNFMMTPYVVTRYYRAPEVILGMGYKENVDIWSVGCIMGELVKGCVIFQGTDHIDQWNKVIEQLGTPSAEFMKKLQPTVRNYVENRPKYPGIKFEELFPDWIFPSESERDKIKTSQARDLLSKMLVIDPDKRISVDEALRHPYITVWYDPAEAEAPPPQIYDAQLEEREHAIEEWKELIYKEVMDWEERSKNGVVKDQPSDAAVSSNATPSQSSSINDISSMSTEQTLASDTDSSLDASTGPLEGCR

SMILES	KINOMEscan binding PIKFYVE [1] [%]	KINOMEscan binding STK10/LOK [2] [%]	KINOMEscan binding BMPR1B [3] [%]	KINOMEscan binding TGFBR1 [4] [%]	KINOMEscan binding MAPK9/JNK2 [5] [%]	KINOMEscan binding CSNK1E [6] [%]	KINOMEscan binding PRKD1 [7] [%]	KINOMEscan binding ACVR1B [8] [%]	KINOMEscan binding MAPK10/JNK3 [9] [%]	KINOMEscan binding MINK1/MINK [10] [%]	TGFBR1 binding [11] [µM]	TFE3 % [12] [%]	TFE3 translocation (in words) ([12]; SH-SY5Y, 24 h treatment)	nTFE3 % ([12]; SH-SY5Y) [%]	DQ Intensity [13]	DQ Spot [13]
Cc1cccc(-c2nc(C)cc(Nc3ccncc3)n2)n1 [GSK257997]	27	0	0	100	43	42	78	78	32	6	0.025	9.74	did not show TFEB and TFE3 activation	9.7	78.64	86.70
Cc1cccc(-c2cc(Nc3ccncc3)c3ccccc3n2)n1 [GSK223675]	23	–	0	–	–	50	91.1	88	–	–	–	9.28	–	9.2	136.99	120.77
Cc1csc(-c2nc(Nc3ccncc3)c3ccccc3n2)n1 [GW869640]	78	–	42	–	–	41	69	94.7	–	–	–	13.20	–	13	86.86	102.29
Cc1cccc(-c2nc(Nc3ccc4c(cnn4C)c3)c3ccccc3n2)n1 [GW876731]	91.5	–	0	–	–	37	99.2	64	–	–	–	20.31	–	20.3	96.16	100.57
Cc1cccc(-c2nc(Nc3ccc4ncsc4c3)c3ccccc3n2)n1 [GW867588]	54	27	0	55	8	6	98.7	35	0	0	–	18.78	–	18.7	95.27	103.18
Clc1cccc(-c2nc(Nc3ccncc3)c3ccccc3n2)c1 [GW873004]	61	–	4	–	–	23	47	72	–	–	0.65	19.51	–	19.5	102.26	118.51

Reference: article PMC9851200, “Multiparameter phenotypic screening for endogenous TFEB and TFE3 translocation identifies novel chemical series modulating lysosome function” (Autophagy, 2022)
